Experimental data published in PMC9324933 (Chemistry (Weinheim an Der Bergstrasse, Germany), 2022).

Legend:
A2780 cells = experiment: Viability of A2780 cells; assay type: cell-based; conditions: read-out: IC50 A2780 cells; human ovarian cancer cells, 48 h, MTT
[1] = Redox potentials by cyclic voltammetry and differential pulse voltammetry; assay type: physicochemical; conditions: redox potential versus ferrocene/ferrocenium (FcH/FcH+); acetonitrile, 23 °C
[2] = N-octanol/water partition coefficient; assay type: physicochemical; conditions: RP-TLC, MOPS pH 7.4/acetonitrile
BL‐2 cells = experiment: Viability of BL-2 cells; assay type: cell-based; conditions: read-out: IC50 BL‐2 cells; human Burkitt's lymphoma cells, 48 h, MTT

With `[Fe+2].c1cc[cH-]c1.c1cc[cH-]c1` [FcH, ferrocene] the IC50 (A2780 cells) was over 50 µM, the E1/2 [1] was 0 mV and the LogP [2] was 3.40. For the same molecule, the IC50 (BL‐2 cells) was over 50 µM.
